Source: ChEMBL document CHEMBL2396621, “Design, synthesis and biological evaluation of 2-mercapto-3-phenethylquinazoline bearing anilide fragments as potential antitumor agents: molecular docking study” (2013)

Legend:
Format in all cases: functional
[1] = Cytotoxicity against human leukemia cells after 48 hrs by coulter counter analysis; conditions: Leukemia cell
[2] = Cytotoxicity against human renal cancer cells after 48 hrs by coulter counter analysis; conditions: Cancer cell lines
[3] = Cytotoxicity against human breast cancer cells after 48 hrs by coulter counter analysis; conditions: Cancer cell lines
[4] = Cytotoxicity against human prostate cancer cells after 48 hrs by coulter counter analysis; conditions: Cancer cell lines
[5] = Cytotoxicity against human melanoma cells after 48 hrs by coulter counter analysis; conditions: Melanoma cell
[6] = Cytotoxicity against human ovarian cancer cells after 48 hrs by coulter counter analysis; conditions: Cancer cell lines
[7] = Cytotoxicity against human CNS cancer cells after 48 hrs by coulter counter analysis; conditions: Cancer cell lines
[8] = Cytotoxicity against human colon cancer cells after 48 hrs by coulter counter analysis; conditions: Cancer cell lines
[9] = Cytotoxicity against human non-small cell lung cancer cells after 48 hrs by coulter counter analysis; conditions: Cancer cell lines
T47D = experiment: Cytotoxicity against human T47D cells assessed as growth inhibition at 10 uM after 48 hrs by coulter counter analysis; conditions: read-out: GI
HT-29 = experiment: Cytotoxicity against human HT-29 cells assessed as growth inhibition at 10 uM after 48 hrs by coulter counter analysis; conditions: HT-29, 48 h, read-out: GI
SK-MEL-5 = experiment: Cytotoxicity against human SK-MEL-5 cells assessed as growth inhibition at 10 uM after 48 hrs by coulter counter analysis; conditions: SK-MEL-5, 48 h, read-out: GI
KM12 = experiment: Cytotoxicity against human KM12 cells assessed as growth inhibition at 10 uM after 48 hrs by coulter counter analysis; conditions: KM12, 48 h, read-out: GI
RXF 393 = experiment: Cytotoxicity against human RXF393 cells assessed as growth inhibition at 10 uM after 48 hrs by coulter counter analysis; conditions: RXF 393, 48 h, read-out: GI
NCI-H23 = experiment: Cytotoxicity against human NCI-H23 cells assessed as growth inhibition at 10 uM after 48 hrs by coulter counter analysis; conditions: NCI-H23, 48 h, read-out: GI
MDA-MB-231 = experiment: Cytotoxicity against human MDA-MB-231 cells assessed as growth inhibition at 10 uM after 48 hrs by coulter counter analysis; conditions: MDA-MB-231, 48 h, read-out: GI
HOP-62 = experiment: Cytotoxicity against human HOP62 cells assessed as growth inhibition at 10 uM after 48 hrs by coulter counter analysis; conditions: HOP-62, 48 h, read-out: GI
HCC 2998 = experiment: Cytotoxicity against human HCC2998 cells assessed as growth inhibition at 10 uM after 48 hrs by coulter counter analysis; conditions: HCC 2998, 48 h, read-out: GI
A498 = experiment: Cytotoxicity against human A498 cells assessed as growth inhibition at 10 uM after 48 hrs by coulter counter analysis; conditions: A498, 48 h, read-out: GI
HCT-116 = experiment: Cytotoxicity against human HCT116 cells assessed as growth inhibition at 10 uM after 48 hrs by coulter counter analysis; conditions: HCT-116, 48 h, read-out: GI
OVCAR-5 = experiment: Cytotoxicity against human OVCAR5 cells assessed as growth inhibition at 10 uM after 48 hrs by coulter counter analysis; conditions: OVCAR-5, 48 h, read-out: GI
BT-549 = experiment: Cytotoxicity against human BT549 cells assessed as growth inhibition at 10 uM after 48 hrs by coulter counter analysis; conditions: BT-549, 48 h, read-out: GI
COLO 205 = experiment: Cytotoxicity against human COLO205 cells assessed as growth inhibition at 10 uM after 48 hrs by coulter counter analysis; conditions: COLO 205, 48 h, read-out: GI
SN12C = experiment: Cytotoxicity against human SN12C cells assessed as growth inhibition at 10 uM after 48 hrs by coulter counter analysis; conditions: read-out: GI
Malme-3M = experiment: Cytotoxicity against human MALME-3M cells assessed as growth inhibition at 10 uM after 48 hrs by coulter counter analysis; conditions: read-out: GI
ACHN = experiment: Cytotoxicity against human ACHN cells assessed as growth inhibition at 10 uM after 48 hrs by coulter counter analysis; conditions: read-out: GI
SF-539 = experiment: Cytotoxicity against human SF539 cells assessed as growth inhibition at 10 uM after 48 hrs by coulter counter analysis; conditions: SF-539, 48 h, read-out: GI
SW-620 = experiment: Cytotoxicity against human SW620 cells assessed as growth inhibition at 10 uM after 48 hrs by coulter counter analysis; conditions: SW-620, 48 h, read-out: GI
SK-MEL-28 = experiment: Cytotoxicity against human SK-MEL-28 cells assessed as growth inhibition at 10 uM after 48 hrs by coulter counter analysis; conditions: SK-MEL-28, 48 h, read-out: GI
UACC-62 = experiment: Cytotoxicity against human UACC62 cells assessed as growth inhibition at 10 uM after 48 hrs by coulter counter analysis; conditions: UACC-62, 48 h, read-out: GI
[10] = Cytotoxicity against human EKVX cells assessed as growth inhibition at 10 uM after 48 hrs by coulter counter analysis; conditions: read-out: GI
Hs-578T = experiment: Cytotoxicity against human Hs578T cells assessed as growth inhibition at 10 uM after 48 hrs by coulter counter analysis; conditions: read-out: GI
UO-31 = experiment: Cytotoxicity against human UO31 cells assessed as growth inhibition at 10 uM after 48 hrs by coulter counter analysis; conditions: UO-31, 48 h, read-out: GI
PC-3 = experiment: Cytotoxicity against human PC3 cells assessed as growth inhibition at 10 uM after 48 hrs by coulter counter analysis; conditions: PC-3, 48 h, read-out: GI
UACC-257 = experiment: Cytotoxicity against human UACC257 cells assessed as growth inhibition at 10 uM after 48 hrs by coulter counter analysis; conditions: UACC-257, 48 h, read-out: GI
MDA-MB-468 = experiment: Cytotoxicity against human MDA-MB-468 cells assessed as growth inhibition at 10 uM after 48 hrs by coulter counter analysis; conditions: MDA-MB-468, 48 h, read-out: GI
A549 = experiment: Cytotoxicity against human A549 cells assessed as growth inhibition at 10 uM after 48 hrs by coulter counter analysis; conditions: A549, 48 h, read-out: GI
SK-OV-3 = experiment: Cytotoxicity against human SKOV3 cells assessed as growth inhibition at 10 uM after 48 hrs by coulter counter analysis; conditions: SK-OV-3, 48 h, read-out: GI
OVCAR-4 = experiment: Cytotoxicity against human OVCAR4 cells assessed as growth inhibition at 10 uM after 48 hrs by coulter counter analysis; conditions: OVCAR-4, 48 h, read-out: GI
NCI-H322M = experiment: Cytotoxicity against human NCI-H322M cells assessed as growth inhibition at 10 uM after 48 hrs by coulter counter analysis; conditions: read-out: GI
SF-295 = experiment: Cytotoxicity against human SF295 cells assessed as growth inhibition at 10 uM after 48 hrs by coulter counter analysis; conditions: SF-295, 48 h, read-out: GI
OVCAR-8 = experiment: Cytotoxicity against human OVCAR8 cells assessed as growth inhibition at 10 uM after 48 hrs by coulter counter analysis; conditions: OVCAR-8, 48 h, read-out: GI
MDA-MB-435 = experiment: Cytotoxicity against human MDA-MB-435 cells assessed as growth inhibition at 10 uM after 48 hrs by coulter counter analysis; conditions: MDA-MB-435, 48 h, read-out: GI
CAKI-1 = experiment: Cytotoxicity against human Caki1 cells assessed as growth inhibition at 10 uM after 48 hrs by coulter counter analysis; conditions: CAKI-1, 48 h, read-out: GI
[11] = Cytotoxicity against human NCI-ADR-RES cells assessed as growth inhibition at 10 uM after 48 hrs by coulter counter analysis; conditions: read-out: GI
U-251 = experiment: Cytotoxicity against human U251 cells assessed as growth inhibition at 10 uM after 48 hrs by coulter counter analysis; conditions: U-251, 48 h, read-out: GI
DU-145 = experiment: Cytotoxicity against human DU145 cells assessed as growth inhibition at 10 uM after 48 hrs by coulter counter analysis; conditions: DU-145, 48 h, read-out: GI
TK-10 = experiment: Cytotoxicity against human TK10 cells assessed as growth inhibition at 10 uM after 48 hrs by coulter counter analysis; conditions: TK-10, 48 h, read-out: GI
SNB-75 = experiment: Cytotoxicity against human SNB75 cells assessed as growth inhibition at 10 uM after 48 hrs by coulter counter analysis; conditions: SNB-75, 48 h, read-out: GI
OVCAR-3 = experiment: Cytotoxicity against human OVCAR3 cells assessed as growth inhibition at 10 uM after 48 hrs by coulter counter analysis; conditions: OVCAR-3, 48 h, read-out: GI
M14 = experiment: Cytotoxicity against human M14 cells assessed as growth inhibition at 10 uM after 48 hrs by coulter counter analysis; conditions: M14, 48 h, read-out: GI
NCI-H460 = experiment: Cytotoxicity against human NCI-H460 cells assessed as growth inhibition at 10 uM after 48 hrs by coulter counter analysis; conditions: NCI-H460, 48 h, read-out: GI
SNB-19 = experiment: Cytotoxicity against human SNB19 cells assessed as growth inhibition at 10 uM after 48 hrs by coulter counter analysis; conditions: SNB-19, 48 h, read-out: GI
HCT-15 = experiment: Cytotoxicity against human HCT15 cells assessed as growth inhibition at 10 uM after 48 hrs by coulter counter analysis; conditions: HCT-15, 48 h, read-out: GI
[12] = read-out: LC50 (the source's name)

O=c1[nH]cc(F)c(=O)[nH]1 [FLUOROURACIL]
8.4 µM: GI50 [8]
76.4 µM: GI50 [3]
22.7 µM: GI50 [4]
45.6 µM: GI50 [2]
61.4 µM: GI50 [6]
70.6 µM: GI50 [5]
> 100 µM: TGI [1] | TGI [2] | TGI [3] | TGI [4] | CC50 [4, 12] | TGI [5] | TGI [6] | TGI [7] | CC50 [7, 12] | TGI [8] | CC50 [8, 12] | GI50 [9] | TGI [9] | CC50 [9, 12]

NC(=O)CSc1nc2ccccc2c(=O)n1CCc1ccccc1
12%: inhibition of growth at 10 µM (A549) | inhibition of growth at 10 µM (CAKI-1)
10%: inhibition of growth at 10 µM [10]
< 10%: inhibition of growth at 10 µM (T47D) | inhibition of growth at 10 µM (HT-29) | inhibition of growth at 10 µM (SK-MEL-5) | inhibition of growth at 10 µM (KM12) | inhibition of growth at 10 µM (RXF 393) | inhibition of growth at 10 µM (NCI-H23) | inhibition of growth at 10 µM (MDA-MB-231) | inhibition of growth at 10 µM (HOP-62) | inhibition of growth at 10 µM (HCC 2998) | inhibition of growth at 10 µM (A498) | inhibition of growth at 10 µM (HCT-116) | inhibition of growth at 10 µM (OVCAR-5) | inhibition of growth at 10 µM (BT-549) | inhibition of growth at 10 µM (COLO 205) | inhibition of growth at 10 µM (SN12C) | inhibition of growth at 10 µM (Malme-3M) | inhibition of growth at 10 µM (SF-539) | inhibition of growth at 10 µM (SW-620) | inhibition of growth at 10 µM (SK-MEL-28) | inhibition of growth at 10 µM (UACC-62) | inhibition of growth at 10 µM (Hs-578T) | inhibition of growth at 10 µM (UO-31) | inhibition of growth at 10 µM (PC-3) | inhibition of growth at 10 µM (UACC-257) | inhibition of growth at 10 µM (MDA-MB-468) | inhibition of growth at 10 µM (SK-OV-3) | inhibition of growth at 10 µM (OVCAR-4) | inhibition of growth at 10 µM (NCI-H322M) | inhibition of growth at 10 µM (SF-295) | inhibition of growth at 10 µM (OVCAR-8) | inhibition of growth at 10 µM (MDA-MB-435) | inhibition of growth at 10 µM [11] | inhibition of growth at 10 µM (U-251) | inhibition of growth at 10 µM (DU-145) | inhibition of growth at 10 µM (TK-10) | inhibition of growth at 10 µM (SNB-75) | inhibition of growth at 10 µM (OVCAR-3) | inhibition of growth at 10 µM (M14) | inhibition of growth at 10 µM (NCI-H460) | inhibition of growth at 10 µM (SNB-19) | inhibition of growth at 10 µM (HCT-15)
34%: inhibition of growth at 10 µM (ACHN)
